The record followed here is patent publication US20250122169A1, “PPARG INVERSE AGONISTS AND USES THEREOF” (Flare Therapeutics Inc., priority 2021, published 2025).

Some results are limits rather than exact numbers.

Test [1] deals with T1, PPARG/RXRA LBD heterodimer (Homo sapiens, UniProt P37231).
T1 construct: His-TEV-Q203-Y477; Uniprot ID P37231-2; made in house; host or cells: E. coli
T1 sequence (P37231 203-477 isoform P37231-2): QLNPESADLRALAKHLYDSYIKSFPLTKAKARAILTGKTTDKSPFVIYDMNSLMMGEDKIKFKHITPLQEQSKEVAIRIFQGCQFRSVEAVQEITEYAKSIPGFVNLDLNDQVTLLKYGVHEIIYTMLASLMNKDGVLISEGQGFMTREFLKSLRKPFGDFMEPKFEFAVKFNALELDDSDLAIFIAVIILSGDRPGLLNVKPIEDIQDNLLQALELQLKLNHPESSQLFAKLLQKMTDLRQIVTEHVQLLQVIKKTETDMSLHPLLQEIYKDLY
T1 sequence (P19793 228-462 partner limits assumed): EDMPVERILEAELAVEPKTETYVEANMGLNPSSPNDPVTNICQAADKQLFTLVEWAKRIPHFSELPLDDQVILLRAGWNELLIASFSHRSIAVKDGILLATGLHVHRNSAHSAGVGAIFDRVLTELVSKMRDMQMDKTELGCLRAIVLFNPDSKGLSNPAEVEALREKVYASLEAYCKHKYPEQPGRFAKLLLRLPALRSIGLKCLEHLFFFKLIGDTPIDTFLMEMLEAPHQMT
In words: PPARγ-MED1 blockade assay (TR-FRET). The class given is biochemical. As to conditions: for EC50: TR-FRET, MED1 LxxLL peptide, 80 nM Rosiglitazone, 3 hours; for Emax: maximal extent, GW9662 defined as 100%, DMSO 0%, read-out: % MED1 blockade relative to GW9662. On the procedure: Compound potency (IC50) and maximal extent of MED1 repulsion to PPARG were assessed a TR-FRET binding assay measuring association of a biotinylated MED1 LxxLL peptide (Biotin-[…]-amide) to PPARG/RXRA LBD heterodimer.

In test [2] the target is T2, PPARG/RXRA LBD heterodimer (Homo sapiens, UniProt P37231).
T2 construct: 2 nM WT PPARG LBD (E. coli expressed, His-TEV-Q203-Y477); fused on or other part: N-terminal His tag with TEV site on the PPARG LBD
In words: PPARγ-NCOR1 recruitment assay (TR-FRET). As to conditions: for Emax: 3 h, maximal extent, T0070907 defined as 100%, DMSO 0%, read-out: % NCOR recruitment relative to T907; for EC50: TR-FRET, NCOR1 ID2 peptide, 80 nM Rosiglitazone, 3 hours, read-out: PPARG-NCOR recruitment assay EC50. The class given is biochemical. On the procedure: Compound potency (EC50) and maximal extent of NCOR1 recruitment to PPARG were assessed a TR-FRET binding assay measuring association of a biotinylated NCOR1 ID2 peptide (Biotin-[…]-amide) to PPARG/RXRA LBD heterodimer.
T2 sequence (O75376 2251-2273 limits assumed, one chain of several, further chain): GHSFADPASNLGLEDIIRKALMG

In test [3] the test system is ANGPTL4, a PPARG target gene, in HT1197 (RXRA S427F mutation) cells. In words: Bladder cancer pharmacodynamic assay, HT1197 cell assay (qPCR of PPARG target gene ANGPTL4). The class given is cell-based. As to conditions: Homo sapiens, read-out: % inhibition of ANGPTL4 @ 100 nM, 100 nM compound, 24 hours, relative to DMSO control. The method, then:
Quantitative PCR was performed using an ABI QuantStudio 7 Flex Reaction system. Data were analyzed and reported relative to DMSO control using the comparative Ct method (ΔΔCt).

As to `N#Cc1cc(-c2cc(=O)c3c(F)c(N4CCS(=O)(=O)CC4)c(F)cc3[nH]2)c(Cl)cn1` [Example 18, 5-chloro-4-(6-(1,1-dioxidothiomorpholino)-5,7-difluoro-4-oxo-1,4-dihydroquinolin-2-yl)picolinonitrile], in test [1], the EC50 was in the range of 10 to 100 nM and the Emax was above 100%. In addition, in test [2], the Emax is above 100% and the concentration for a half-maximal effect (EC50) lay in the range of 10 to 100 nM. Besides, the inhibition at 0.1 µM in test [3] stood at 57%.
With `CN(C)C(=O)C1CCN(c2c(F)cc3[nH]c(-c4cc(C#N)ncc4Cl)cc(=O)c3c2F)CC1` [Example 19, 1-(2-(5-chloro-2-cyanopyridin-4-yl)-5,7-difluoro-4-oxo-1,4-dihydroquinolin-6-yl)-N,N-dimethylpiperidine-4-carboxamide], in test [1], the EC50 is 10 to 100 nM and the Emax is above 100%. In addition, in test [2], the Emax was above 100% and the EC50 fell in the range of 10 to 100 nM. In addition, the inhibition at 0.1 µM in test [3] came out at 84%.
Take `CN1CCC(c2c(F)cc3[nH]c(-c4cc(C#N)ncc4Cl)cc(=O)c3c2F)CC1` [Example 20, 5-chloro-4-(5,7-difluoro-6-(1-methylpiperidin-4-yl)-4-oxo-1,4-dihydroquinolin-2-yl)picolinonitrile]: the EC50 in test [1] and in test [2] was 10 to 100 nM in each case. Also, the Emax in test [1] and in test [2] was above 100% each time. Also, in test [3], the inhibition at 0.1 µM came to 80%.
As for `CN(C)C(=O)N1CCN(c2c(F)cc3[nH]c(-c4cc(C#N)ncc4Cl)cc(=O)c3c2F)CC1` [Example 21, 4-(2-(5-chloro-2-cyanopyridin-4-yl)-5,7-difluoro-4-oxo-1,4-dihydroquinolin-6-yl)-N,N-dimethylpiperazine-1-carboxamide], in test [1], the EC50 was below 10 nM and the Emax is above 100%. Moreover, in test [2], the Emax is above 100% and the EC50 was below 10 nM. The inhibition at 0.1 µM in test [3] came to 81%.
For the molecule `CN(C)C(=O)[C@@H]1CCCN(c2c(F)cc3[nH]c(-c4cc(C#N)ncc4Cl)cc(=O)c3c2F)C1` [Example 22, (R)-1-(2-(5-chloro-2-cyanopyridin-4-yl)-5,7-difluoro-4-oxo-1,4-dihydroquinolin-6-yl)-N,N-dimethylpiperidine-3-carboxamide], in test [1], the EC50 is 10 to 100 nM and the Emax is above 100%. Moreover, in test [2], the Emax is above 100% and the EC50 was below 10 nM. The inhibition at 0.1 µM in test [3] turned out to be 91%.
As to `CN(C)C(=O)[C@H]1CCCN(c2c(F)cc3[nH]c(-c4cc(C#N)ncc4Cl)cc(=O)c3c2F)C1` [Example 23, (S)-1-(2-(5-chloro-2-cyanopyridin-4-yl)-5,7-difluoro-4-oxo-1,4-dihydroquinolin-6-yl)-N,N-dimethylpiperidine-3-carboxamide], the EC50 in test [1] and in test [2] was below 10 nM each time. Moreover, the Emax in test [1] and in test [2] was above 100% each time. Moreover, the inhibition at 0.1 µM in test [3] is 76%.
For `CN1CCN(c2c(F)cc3[nH]c(-c4cc(C#N)ncc4Cl)cc(=O)c3c2F)CC1=O` [Example 24, 5-chloro-4-(5,7-difluoro-6-(4-methyl-3-oxopiperazin-1-yl)-4-oxo-1,4-dihydroquinolin-2-yl)picolinonitrile], in test [1], the EC50 was 10 to 100 nM and the Emax is above 100%. Besides, in test [2], the Emax was above 100% and the EC50 lay within 10 to 100 nM. For the same molecule, the inhibition at 0.1 µM in test [3] is 87%.
Consider `CN(C)C(=O)[C@@H]1CCN(c2c(F)cc3[nH]c(-c4cc(C#N)ncc4Cl)cc(=O)c3c2F)C1` [Example 25, (R)-1-(2-(5-chloro-2-cyanopyridin-4-yl)-5,7-difluoro-4-oxo-1,4-dihydroquinolin-6-yl)-N,N-dimethylpyrrolidine-3-carboxamide], for which, in test [1], the EC50 was below 10 nM and the Emax is above 100%. Moreover, in test [2], the Emax is above 100% and the EC50 was below 10 nM. For the same molecule, in test [3], the inhibition at 0.1 µM turned out to be 86%.
`CN(C)C(=O)[C@H]1CCN(c2c(F)cc3[nH]c(-c4cc(C#N)ncc4Cl)cc(=O)c3c2F)C1` [Example 26, (S)-1-(2-(5-chloro-2-cyanopyridin-4-yl)-5,7-difluoro-4-oxo-1,4-dihydroquinolin-6-yl)-N,N-dimethylpyrrolidine-3-carboxamide]: in test [1], the EC50 was below 10 nM and the Emax is above 100%. Moreover, in test [2], the Emax was above 100% and the EC50 is below 10 nM. Also, the inhibition at 0.1 µM in test [3] amounted to 85%.
Consider `N#Cc1cnc(Cl)c(-c2cc(=O)c3c(F)cc(F)cc3[nH]2)c1` [Example 27, 6-chloro-5-(5,7-difluoro-4-oxo-1,4-dihydroquinolin-2-yl)nicotinonitrile], for which the EC50 in test [1] and in test [2] was 10 to 100 nM in each case. The Emax in test [1] and in test [2] was above 100% each time. In test [3], the inhibition at 0.1 µM is 70%.
In the case of `C[S+]([O-])c1cnc(C#N)cc1-c1cc(=O)c2c(F)cc(F)cc2[nH]1` (stereo not drawn) [Example 28, 4-(5,7-difluoro-4-oxo-1,4-dihydroquinolin-2-yl)-5-(methylsulfinyl)picolinonitrile], in test [1], the EC50 fell in the range of 10 to 100 nM and the Emax was above 100%. Further, in test [2], the Emax was above 100% and the EC50 lay within 10 to 100 nM. Also, the inhibition at 0.1 µM in test [3] amounted to 79%.
As to `CS(=O)(=O)c1cnc(C#N)cc1-c1cc(=O)c2ccc(Cl)cc2[nH]1` [Example 30, 4-(7-chloro-4-oxo-1,4-dihydroquinolin-2-yl)-5-(methylsulfonyl)picolinonitrile], the EC50 in test [1] and in test [2] was below 10 nM each time. Moreover, the Emax in test [1] and in test [2] was above 100% in each case. For the same molecule, in test [3], the inhibition at 0.1 µM turned out to be 88%.
For the molecule `CS(=O)(=O)c1cnc(C#N)cc1-c1cc(=O)c2c(F)cc(Cl)cc2[nH]1` [Example 31, 4-(7-chloro-5-fluoro-4-oxo-1,4-dihydroquinolin-2-yl)-5-(methylsulfonyl)picolinonitrile], in test [1], the 50% effective concentration (EC50) was below 10 nM and the Emax is above 100%. In test [2], the Emax is above 100% and the EC50 is below 10 nM. Also, the inhibition at 0.1 µM in test [3] was found to be 86%.
For `CS(=O)(=O)c1ccc(C#N)nc1-c1cc(=O)c2c(F)cc(F)cc2[nH]1` [Example 32, 6-(5,7-difluoro-4-oxo-1,4-dihydroquinolin-2-yl)-5-(methylsulfonyl)picolinonitrile], in test [1], the EC50 is below 10 nM and the Emax is above 100%. In addition, in test [2], the Emax was above 100% and the EC50 is below 10 nM. Besides, in test [3], the inhibition at 0.1 µM was 87%.
On to `N#Cc1ncc(Cl)c(-c2cc(=O)c3c(F)cc(F)cc3[nH]2)n1` [Example 33, 5-chloro-4-(5,7-difluoro-4-oxo-1,4-dihydroquinolin-2-yl)pyrimidine-2-carbonitrile], for which, in test [1], the EC50 is below 10 nM and the Emax was above 100%. In test [2], the Emax is above 100% and the EC50 is below 10 nM. In addition, the inhibition at 0.1 µM in test [3] stood at 31%.
